Assay results: ChEMBL document CHEMBL1133266, “Effects of 2-(substituted-sulfanyl)-3,5-dihydro-imidazole-4-one and 2-(substituted-sulfanyl)-1H-imidazole-4,5-dione derivatives on serum HDL-cholesterol” (2000)

Test system: Rattus norvegicus
Assay: Compound was evaluated for increase of high density lipoprotein cholesterol (HDL-C) in cholesterol fed male rats after treatment for 8 days at a dose of 80 mg/kg/day; Average % HDL-C change in 6 animals
Format: functional

Compound `CCSC1=NCC(=O)N1c1ccc(F)cc1` has a Change of 140%.

Test system: Rattus norvegicus
Assay: Compound was evaluated in vivo for the increase of very low density lipoprotein cholesterol (VLDL-C) in cholesterol fed male rats
Format: functional

With `CCSC1=NCC(=O)N1c1ccccc1C` the Increase was 78%.

Test system: Rattus norvegicus
Assay: Increase of high density lipoprotein cholesterol (HDL-C) in cholesterol fed male rats after treatment for 8 days at a dose of 100 mg/kg/day; Average % HDL-C change in 6 animals
Format: functional

Going from `CCSC1=NCC(=O)N1c1c(C)cccc1Cl` to `CCSC1=NCC(=O)N1c1c(C)cccc1C`, the Change rises from 71% to 75%.

Going from `CCSC1=NCC(=O)N1c1cccc(Cl)c1C` to `CCSC1=NCC(=O)N1c1ccccc1Cl`, the Change rises from 26% to 74%.

Compared with `CCSC1=NCC(=O)N1c1ccccc1C`, `CCSC1=NCC(=O)N1c1cc(Cl)ccc1C` is higher in Change: 139% for the first, 153% for the second.

First: CCSC1=NC(=O)C(=O)N1c1ccccc1C
Second: CCSC1=NC(=O)C(=O)N1c1cc(Cl)ccc1C
The Change of the first is lower: 48% for the first, 85% for the second.

Compared with `CCSC1=NCC(=O)N1c1ccccc1`, `CCSC1=NCC(=O)N1c1ccc(C)c(Cl)c1` is lower in Change: 89% for the first, 45% for the second.

Going from `CCSC1=NCC(=O)N1c1c(Cl)cccc1Cl` to `CCSC1=NCC(=O)N1c1ccc(Cl)cc1C`, the Change falls from 169% to 39%.

First: CCSC1=NCC(=O)N1c1cc(Cl)ccc1OC
Second: CCSC1=NCC(=O)N1c1cc(F)ccc1C
The Change of the first is higher: 66% for the first, 32% for the second.

First: Cc1ccc(Cl)cc1N1C(=O)CN=C1SCc1ccccc1
Second: CCSC1=NC(C)C(=O)N1c1cc(Cl)ccc1C (stereo not drawn)
The Change of the first is lower: 102% for the first, 211% for the second.
